Laboratory results from article PMC8776092, “A Toxoplasma gondii Oxopurine Transporter Binds Nucleobases and Nucleosides Using Different Binding Modes” (International Journal of Molecular Sciences, 2022).
Where two headings read alike, the source gives them in different places.

What was measured:
Tg244440 [1] = molecular target: T1, Tg244440 (Toxoplasma gondii, UniProt A0A125YNC9); test: [3H]-guanine uptake and its inhibition in T. brucei TbNB-KO procyclics expressing Tg244440 (clone F5); format: cell-based; settings: for Ki: competition with 50 nM [3H]-guanine, 30 s, Cheng-Prusoff; for ΔG^0 (Gibbs free energy of interaction): calculated from Km or Ki, ΔG0 = −RTln(Ki); for Summation of the Gibbs free energy of the proposed interactions (binding model), Σ: substrate binding model, Figure 5, for adenosine base group only
T1 sequence (A0A125YNC9 1-462): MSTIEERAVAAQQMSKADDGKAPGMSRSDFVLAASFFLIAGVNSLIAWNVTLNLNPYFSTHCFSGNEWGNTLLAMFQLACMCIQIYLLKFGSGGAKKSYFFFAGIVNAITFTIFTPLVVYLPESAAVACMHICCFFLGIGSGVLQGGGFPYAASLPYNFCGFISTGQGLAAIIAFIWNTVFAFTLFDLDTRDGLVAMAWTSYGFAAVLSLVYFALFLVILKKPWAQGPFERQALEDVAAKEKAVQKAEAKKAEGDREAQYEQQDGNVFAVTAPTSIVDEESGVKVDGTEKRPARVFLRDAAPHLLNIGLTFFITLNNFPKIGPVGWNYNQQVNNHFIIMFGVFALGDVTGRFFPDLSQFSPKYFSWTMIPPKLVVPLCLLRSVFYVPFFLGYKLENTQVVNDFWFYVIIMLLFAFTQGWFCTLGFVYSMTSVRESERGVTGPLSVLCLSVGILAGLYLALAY
Procedure: (§1) Briefly, PCF cells of T. brucei in logarithmic growth were harvested by centrifugation at 1000× g for 10 min, washed twice in AB and then resuspended in fresh buffer at a final density of 10^8 cells/mL. […] Immediately after finishing the assay, all tubes were flash-frozen in liquid nitrogen and the cell pellets were cut into scintillation vials and lysed with a solution of 2% SDS for one hour under agitation. Then, 3 mL of scintillation fluid (Scintilogic U, Lablogic) was added to each vial and left agitating overnight on a rocking platform. The next morning, the vials were vigorously shaken to ensure optimal mixing and the scintillation was measured in a 300SL (Hidex) scintillation counter. All assays were carried out in triplicate. All experimental data such as Km, Ki and Vmax values are the average and SEM of at least three separate experiments, each in triplicate, unless otherwise indicated.
(§2) Background scintillation was measured in vials containing no cells or radiolabeled substrate, and counts associated with extracellular radiolabel were calculated from samples where cells were briefly incubated with the same concentration of radiolabel, but in the presence of saturating concentrations of non-radiolabeled substrate before centrifugation through oil. The average of the three control replicates was subtracted from each data point.

Tg244440 [2] = format: cell-based, Toxoplasma gondii; settings: 0.1 μM [3H]-permeant, 60 s, clones B11, F5 and G10
Procedure: (§3) Figure 2 Uptake of radiolabelled nucleosides and nucleobases by in three clonal lines of T. brucei NB-KO procyclics, expressing Tg244440 in pHD1336. EV, empty vector control. Radiolabel concentration was 0.1 µM and uptake was measured over 60 s, in triplicate (average and SEM shown). Statistically significant differences between the control and the Tg244440-expressing cells were established using Student’s unpaired t-test. *, p < 0.05, **, p < 0.01, ***, p < 0.001.
as §1

TgAT1 = settings: cited from earlier work
TgAT2 = test system: TgAT2; parameters: method as in PMID 12865082; settings: tachyzoites; cited from earlier work
Tg244440 [3] = molecular target: T1, Tg244440; settings: Xenopus laevis oocytes, 10 µM [3H]-adenosine; cited from earlier work
human adenosine kinase = test system: human adenosine kinase; parameters: method as in PMID 23592612, PMID 6363411, PMID 10722669, PMID 8982282; settings: cited from earlier work
[4] = test system: human adenosine deaminase; parameters: method as in PMID 23592612, PMID 6363411, PMID 10722669, PMID 8982282; settings: cited from earlier work
hENT1 = test system: hENT1; parameters: method as in PMID 23592612, PMID 6363411, PMID 10722669, PMID 8982282; settings: cited from earlier work
Tg244440 [5] = molecular target: T1, Tg244440; settings: clone F5
Procedure: as §1, §2

[6] = test system: TbNBT-KO cells transfected with the empty vector (EV); test: [3H]-guanine and [3H]-hypoxanthine uptake in TbNBT-KO cells transfected with the empty vector (EV); format: cell-based, Trypanosoma brucei; settings: for Rate of [3H]-hypoxanthine uptake, EV: empty vector cells
Procedure: as §1, §2

Tg244440 [7] = molecular target: T1, Tg244440; format: cell-based; settings: 0.1 μM [3H]-permeant, 60 s, clones B11, F5 and G10
Procedure: as §3, §1

TgNBT1 = settings: tachyzoites; cited from earlier work
[8] = [Permeant] 0.1 μM, over 60 s, listed as hypoxanthine
[9] = [Permeant] 1000 μM (unlabelled hypoxanthine to saturate the transporter)

SMILES: Nc1ncnc2c1ncn2[C@@H]1O[C@H](CO)[C@@H](O)[C@H]1O [Adenosine]
- Affinity for Tg244440 (in words) (Tg244440 [1]): Low affinity
- Ki (Tg244440 [1]): 68.2 ± 2.86 µM
- ΔG^0 (Gibbs free energy of interaction) (Tg244440 [1]): -23.8 kJ/mol
- Fold higher affinity than adenine (Tg244440 [1]; ratio of Ki values): 6 fold
- Fold lower affinity than inosine and guanosine (Tg244440 [1]; ratio of Ki values): about 20 fold
- δ(ΔG^0) relative to Adenine (Tg244440 [1]): -4.5 kJ/mol
- δ(ΔG^0) relative to Adenine (Tg244440 [1]; listed as adenosine): 4.5 kJ/mol
- Summation of the Gibbs free energy of the proposed interactions (binding model), Σ (Tg244440 [1]): -20.8 kJ/mol
- Uptake of radiolabelled permeant in Tg244440 clones compared to empty vector (Tg244440 [2]): No difference
- Km (TgAT1; adenosine transport): 120 µM
- Km (TgAT1; for its substrates): > 100 µM
- Km (TgAT2): 0.49 µM
- Km (Tg244440 [3]): 114 ± 37 µM
- Km (human adenosine kinase): 0.2 to 0.4 µM
- Km [4]: 49 µM
- Km (hENT1): 40 to 60 µM

SMILES: O=c1[nH]cnc2nc[nH]c12 [Hypoxanthine]
- Ki (Tg244440 [1]): 2.26 ± 0.36 µM
- Sum of δ(ΔG^0) for the 7-deaza and 9-deaza analogues (Tg244440 [1]; analogues of the named nucleobase): 15.8 kJ/mol
- ΔG^0 (Gibbs free energy of interaction) (Tg244440 [1]): -32.2 kJ/mol
- δ(ΔG^0) relative to Guanine (Tg244440 [1]; relative to Guanine): 1.5 kJ/mol
- Summation of the Gibbs free energy of the proposed interactions (binding model), Σ (Tg244440 [1]): -33.5 kJ/mol
- Rate of [3H]-hypoxanthine uptake, +Tg244440 (Tg244440 [5]; [Permeant] 0.1 μM, over 60 s): 0.048 ± 0.0004 pmol(10^7 Cells)^−1s^−1
- Rate of [3H]-hypoxanthine uptake, +Tg244440 (Tg244440 [5]; [8]): 0.048 pmol(10^7 Cells)^−1s^−1
- Rate of [3H]-hypoxanthine uptake, +Tg244440 (Tg244440 [5]; [9]): −0.01 ± 0.01 pmol(10^7 Cells)^−1s^−1
- Slope of uptake in EV control lower than in +Tg244440 clone F5 ([6]; 0.10 µM [3H]-hypoxanthine over 60 s): 86.2%
- Rate of [3H]-hypoxanthine uptake, EV ([6]; [Permeant] 0.1 μM, over 60 s): 0.0066 ± 0.0007 pmol(10^7 Cells)^−1s^−1
- Rate of [3H]-hypoxanthine uptake, EV [6, 8]: 0.0066 pmol(10^7 Cells)^−1s^−1
- Rate of [3H]-hypoxanthine uptake, EV [6, 9]: 0.00055 pmol(10^7 Cells)^−1s^−1
- Uptake of radiolabelled permeant in Tg244440 clones compared to empty vector (Tg244440 [7]): highly significant increases
- Km (TgNBT1): 0.91 µM
